In US7728131B2, “Amide derivative and medicine” (Nippon Shinyaku Co., Ltd., priority 2003, dated 2010):
Counter-ions that a name gives are not always drawn. Like-named read-outs stand apart in the source and are kept apart here.

Assays:
U937 cells = assay: Cell growth inhibitory effect, U937 cells (Cell counting Kit-8, 72 hours); assay type: cell-based; conditions: Homo sapiens, U-937, BCR-ABL negative U937 cells, WST-8 absorbance
Experimental: The plate was incubated in a CO2 incubator overnight. […] The plate was incubated in a CO2 incubator. After 72 hours, 20 μl

K562 cells = assay: Cell growth inhibitory effect, K562 cells (Cell counting Kit-8, 72 hours); conditions: for IC50: Homo sapiens, K562, 72 h, read-out: K562 cells (IC50 value: μM); for Ratio (U937 cells/K562 cells): IC50 U937 cells / IC50 K562 cells;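 for all read-outs here: Read-out is formazan absorbance at 450 nm from WST-8 reduction after a 3 h color reaction, with K562 and U937 cells grown in 96-well plates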
Experimental: of Cell counting Kit-8 (5 mmol/l WST-8, 0.2 mmol/1 1-Methoxy PMS, 150 mmol/l NaCl) (manufactured by Dojindo) was added to each well. After reaction for color development in a CO2 incubator for 3 hours, an absorbance of formazan, generated by reduction of WST-8 was determined at 450 nm using Multi-level counter ARVOsx (manufactured by Wallac).
K562 cells and U937 cells (purchased from American Type Culture Collection) were cultured in a RPMI-1640 medium (manufactured by Sigma) containing 10% (v/v) fetal calf serum (FCS) (manufactures by Sigma) (RPMI-1640/FCS). K562 cells and U937 cells were seeded at a density of 5000 cells/100 μl/well and 4000 cells/100 μl/well in each of 96-hole-plate (manufactured by costar), respectively. The plate was incubated in a CO2 incubator overnight. […] The resulting solution was diluted 500 times in a RPMI-1640/FCS medium and then 100 μl of the diluent was added in a well. The plate was incubated in a CO2 incubator. After 72 hours, 20 μl

[1] = continuation of Table 3, read-out: U937 cells (IC50 value: nμM)
[2] = read-out: U937 cells (IC50 value: μM)

Row | IC50 (U937 cells; [1]) [µM] | melting point | IC50 (K562 cells) [µM] | IC50 (U937 cells; [2]) [µM] | SMILES | Ratio (U937 cells/K562 cells) (K562 cells)
1 | 5.6 | 200 to 202 °C | 0.0058 |  | CCN(CC)[C@H]1CCN(Cc2ccc(C(=O)Nc3ccc(C)c(Nc4nccc(-c5cncnc5)n4)c3)cc2C(F)(F)F)C1.Cl [Example 57, (−)-4-[(S)-3-(N,N-diethylamino)pyrrolidin-1-ylmethyl]-3-trifluoromethyl-N-{4-methyl-3-[4-(5-pyrimidinyl)pyrimidin-2-ylamino]phenyl}benzamide hydrochloride] | 966
2 | 4 | 188 to 193 °C | 0.005 |  | Cc1ccc(NC(=O)c2ccc(CN3C[C@@H](N(C)C)C[C@H]3C)c(C(F)(F)F)c2)cc1Nc1nccc(-c2cncnc2)n1.Cl [Example 60, (−)-4-[(2R,4S)-4-(dimethylamino)-2-methylpyrrolidin-1-ylmethyl]-3-trifluoromethyl-N-{4-methyl-3-[4-(5-pyrimidinyl)pyrimidin-2-ylamino]phenyl}benzamide hydrochloride] | 800
3 | 3.7 | 195 to 198 °C | 0.0043 |  | Cc1ccc(NC(=O)c2ccc(CN3CCC[C@H](N(C)C)C3)c(C(F)(F)F)c2)cc1Nc1nccc(-c2cncnc2)n1.Cl [Example 64, (+)-4-[(S)-3-(dimethylamino)piperidinomethyl]-3-trifluoromethyl-N-{4-methyl-3-[4-(5-pyrimidinyl)pyrimidin-2-ylamino]phenyl}benzamide hydrochloride] | 860
4 |  | 166 to 172 °C (dec.) | 0.0048 | 4.6 | CCN1CCN(Cc2ccc(C(=O)Nc3ccc(C)c(Nc4nccc(-c5cncc(Br)c5)n4)c3)cc2C(F)(F)F)CC1.Cl [Example 18, 4-(4-ethylpiperazin-1-ylmethyl)-3-trifluoromethyl-N-{3-[4-(5-bromopyridin-3-yl)pyrimidin-2-ylamino]-4-methylphenyl}benzamide hydrochloride] | 958
5 | 13 |  | 0.0081 |  | CO[C@H]1CN(Cc2ccc(C(=O)Nc3ccc(C)c(Nc4nccc(-c5cncnc5)n4)c3)cc2C(F)(F)F)C[C@@H]1N(C)C.Cl [Example 59, 4-[(3S,4S)-3-(dimethylamino)-4-methoxypyrrolidin-1-ylmethyl]-3-trifluoromethyl-N-{4-methyl-3-[4-(5-pyrimidinyl)pyrimidin-2-ylamino]phenyl}benzamide hydrochloride] | 1605
6 | 42 |  | 0.0063 |  | Cc1ccc(NC(=O)c2ccc(CC3CCN(C)CC3)c(CF)c2)cc1Nc1nccc(-c2cncnc2)n1 [Example 21, 3-fluoromethyl-4-(1-methylpiperidin-4-ylmethyl)-N-{4-methyl-3-[4-(5-pyrimidinyl)pyrimidin-2-ylamino]phenyl}benzamide] | 6667
7 | 3.9 |  | 0.0011 |  | Cc1ccc(NC(=O)c2ccc(CN3CCNCC3)c(C(F)(F)F)c2)cc1Nc1nccc(-c2cncnc2)n1 [Example 43, 4-(1-piperazinylmethyl)-3-trifluoromethyl-N-{4-methyl-3-[4-(5-pyrimidinyl)pyrimidin-2-ylamino]phenyl}benzamide trifluoroacetate] | 3545
8 |  | 189 to 191 °C |  |  | Cc1ccc(NC(=O)c2ccc(CN3CCN(C)CC3)c(C(F)(F)F)c2)cc1Nc1cc(-c2cccnc2)ccn1 (as salt: methanesulfonate) [Example 29, 4-(4-methylpiperazin-1-ylmethyl)-3-trifluoromethyl-N-{4-methyl-3-[4-(3-pyridyl)pyridin-2-ylamino]phenyl}benzamide methanesulfonate] | 

Continued, molecule first:

Row | SMILES | IC50 (U937 cells; [1]) [µM] | melting point | IC50 (K562 cells) [µM] | IC50 (U937 cells; [2]) [µM] | Ratio (U937 cells/K562 cells) (K562 cells)
9 | Cc1ccc(NC(=O)c2ccc(CN3CCN(C)CC3)c(Cl)c2)cc1Nc1nccc(-c2cncnc2)n1.Cl [Example 20, 3-chloro-4-(4-methylpiperazin-1-ylmethyl)-N-{4-methyl-3-[4-(5-pyrimidinyl)pyrimidin-2-ylamino]phenyl}benzamide hydrochloride] | 29 | 197 to 200 °C | 0.0026 |  | 11154
10 | Cc1ccc(NC(=O)c2ccc(C=C3CCN(C)CC3)c(C(F)(F)F)c2)cc1Nc1nccc(-c2cncnc2)n1.Cl [Example 6, 4-(1-methylpiperidin-4-ylidenemethyl)-3-trifluoromethyl-N-{4-methyl-3-[4-(5-pyrimidinyl)pyrimidin-2-ylamino]phenyl}benzamide hydrochloride] |  | 202 to 206 °C (dec.) | 0.0012 | 4.3 | 3583
11 | Cc1ccc(NC(=O)c2ccc(CN3CCN(C)CC3)c(C(F)(F)F)c2)cc1Nc1cc(-c2cccnc2)ccn1 [Example 29, 4-(4-methylpiperazin-1-ylmethyl)-3-trifluoromethyl-N-{4-methyl-3-[4-(3-pyridyl)pyridin-2-ylamino]phenyl}benzamide methanesulfonate] | 1.4 |  | 0.0017 |  | 824
12 | Cc1ccc(NC(=O)c2ccc(CN3CCN(C)C(C(N)=O)C3)c(C(F)(F)F)c2)cc1Nc1nccc(-c2cncnc2)n1.Cl (stereo not drawn) [Example 50, 4-(3-carbamoyl-4-methylpiperazin-1-ylmethyl)-3-trifluoromethyl-N-{4-methyl-3-[4-(5-pyrimidinyl)pyrimidin-2-ylamino]phenyl}benzamide hydrochloride] | 16 | 203 to 208 °C | 0.0046 |  | 3478
13 | Cc1ccc(NC(=O)c2ccc(CN3CCN[C@H](C)C3)c(C(F)(F)F)c2)cc1Nc1nccc(-c2cncnc2)n1.Cl [Example 56, (+)-4-((R)-3-methylpiperazin-1-ylmethyl)-3-trifluoromethyl-N-{4-methyl-3-[4-(5-pyrimidinyl)pyrimidin-2-ylamino]phenyl}benzamide hydrochloride] | 4.4 | 254 to 258 °C | 0.0046 |  | 957
14 | Cc1ccc(NC(=O)c2ccc(CN3CCN[C@@H](C)C3)c(C(F)(F)F)c2)cc1Nc1nccc(-c2cncnc2)n1.Cl [Example 55, 4-((S)-3-methylpiperazin-1-ylmethyl)-3-trifluoromethyl-N-{4-methyl-3-[4-(5-pyrimidinyl)pyrimidin-2-ylamino]phenyl}benzamide] | 10 |  | 0.0022 |  | 4545
15 | Cc1ccc(NC(=O)c2ccc(CN3CC[C@@H](N(C)C)C3)c(C(F)(F)F)c2)cc1Nc1nccc(-c2cncnc2)n1.Cl [Example 38, (+)-4-[(R)-3-(dimethylamino)pyrrolidin-1-ylmethyl]-3-trifluoromethyl-N-{4-methyl-3-[4-(5-pyrimidinyl)pyrimidin-2-ylamino]phenyl}benzamide hydrochloride] | 8.9 |  | 0.0019 |  | 4684
16 | Cc1ccc(NC(=O)c2ccc(CN3CCNCC3)c(C(F)(F)F)c2)cc1Nc1nccc(-c2cncnc2)n1 (as salt: trifluoroacetate) [Example 43, 4-(1-piperazinylmethyl)-3-trifluoromethyl-N-{4-methyl-3-[4-(5-pyrimidinyl)pyrimidin-2-ylamino]phenyl}benzamide trifluoroacetate] |  | 199 to 202 °C (dec.) |  |  | 
17 | CN[C@H]1CCN(Cc2ccc(C(=O)Nc3ccc(C)c(Nc4nccc(-c5cncnc5)n4)c3)cc2C(F)(F)F)C1 [Example 68, (−)-4-[(S)-3-(methylamino)pyrrolidin-1-ylmethyl]-3-trifluoromethyl-N-{4-methyl-3-[4-(5-pyrimidinyl)pyrimidin-2-ylamino]phenyl}benzamide] | 5.8 |  | 0.0024 |  | 2417
18 | Cc1ccc(NC(=O)c2ccc(CN3CC[C@H](N(C)C)C3)c(C(F)(F)F)c2)cc1Nc1nccc(-c2cncnc2)n1.Cl [Example 48, (−)-4-[(S)-3-(dimethylamino)pyrrolidin-1-ylmethyl]-3-trifluoromethyl-N-{4-methyl-3-[4-(5-pyrimidinyl)pyrimidin-2-ylamino]phenyl}benzamide hydrochloride] | 12 |  | 0.004 |  | 3000
19 | CN[C@H]1CCN(Cc2ccc(C(=O)Nc3ccc(C)c(Nc4nccc(-c5cncnc5)n4)c3)cc2C(F)(F)F)C1 (as salt: salt) [Example 68, (−)-4-[(S)-3-(methylamino)pyrrolidin-1-ylmethyl]-3-trifluoromethyl-N-{4-methyl-3-[4-(5-pyrimidinyl)pyrimidin-2-ylamino]phenyl}benzamide] |  | 142 to 149 °C (dec.) |  |  | 
20 | Cc1ccc(NC(=O)c2ccc(CN3CCC[C@H]3CN3CCCC3)c(C(F)(F)F)c2)cc1Nc1nccc(-c2cncnc2)n1.Cl [Example 52, (−)-4-[(S)-2-(1-pyrrolidinylmethyl)pyrrolidin-1-ylmethyl]-3-trifluoromethyl-N-{4-methyl-3-[4-(5-pyrimidinyl)pyrimidin-2-ylamino]phenyl}benzamide hydrochloride] | 3.9 |  | 0.004 |  | 975
21 | Cc1ccc(NC(=O)c2ccc(CN3CC[C@H](N)C3=O)c(C(F)(F)F)c2)cc1Nc1nccc(-c2cncnc2)n1 [Example 46, (−)-4-((S)-3-amino-2-oxopyrrolidin-1-ylmethyl)-3-trifluoromethyl-N-{4-methyl-3-[4-(5-pyrimidinyl)pyrimidin-2-ylamino]phenyl}benzamide] | 29 |  | 0.019 |  | 1526
22 | Cc1ccc(NC(=O)c2ccc(CN3CCN(C)CC3)c(C(F)(F)F)c2)cc1Nc1cc(-c2cccnc2)ccn1 [Example 28, 4-(4-methylpiperazin-1-ylmethyl)-3-trifluoromethyl-N-{4-methyl-3-[4-(3-pyridyl)pyridin-2-ylamino]phenyl}benzamide] |  | 241 to 242 °C (dec.) |  |  | 
